Patent US12378224B2 (Dong-A Socio Holdings Co., Ltd., priority 2016, dated 2025)

Molecular target: human c-MER catalytic domain (Homo sapiens (Human), UniProt Q12866)
Assay: TR-FRET Kinase Activity Biochemical Assay (LanthaScreen)
Settings: 10 uM ATP, 1 hour, kinase not given
From the text: For the SAR (structure-activity relationship) and compound screening, LanthaScreen™ TR-FRET (Time-Resolved fluorescence energy transfer) assay was employed using the phospho-tyrosine specific Terbium (Tb)-labelded antibody with a fluorescein labeled poly-GT (glutamate-tyrosine) as a substrate. Upon excitation at 340 nm by UV, the energy from Tb donor of the antibody is transferred to the fluorescein of the phosphorylated poly GT substrate, and fluorescein emits light at 520 nm. The ratio between the intensity of […] was used to quantify the level of kinase activity. The recombinant proteins of human c-MER and AXL catalytic domains, Fluorescein-labeled poly-GT substrate, Tb-labeled anti-phosphorylated tyrosine antibodies, the kinase assay buffer, and 0.5M EDTA solution were purchased (Life technologies, USA). The TR-FRET assays were carried out in the white low volume 384-well plate (Corning, USA). […] 10 mM EDTA was added to terminate the enzyme reaction, and the level of phosphorylation of poly-GT substrate was determined following 30 min incubation with 2 nM Tb-labeled antibody. The fluorescence intensity was measured with Envision™ plate reader (PerkinElmer, USA).

Chain of human c-MER catalytic domain (Q12866 587-858): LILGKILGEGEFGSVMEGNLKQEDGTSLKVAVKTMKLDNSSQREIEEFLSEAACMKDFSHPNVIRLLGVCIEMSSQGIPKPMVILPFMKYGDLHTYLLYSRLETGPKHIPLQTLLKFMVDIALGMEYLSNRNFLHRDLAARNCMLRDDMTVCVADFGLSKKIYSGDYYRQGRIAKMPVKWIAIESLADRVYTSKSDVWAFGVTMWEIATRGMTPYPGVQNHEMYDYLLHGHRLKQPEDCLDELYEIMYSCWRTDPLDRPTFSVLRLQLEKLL

IC50 [nM] | Compound
10 to 100 | CC(c1ccccc1Cl)N1CC[C@@H](NC(=O)c2cc(-c3cnn(C4CCNCC4)c3)cnc2N)C1 (stereo partly drawn) [Example 148, 2-amino-N-((3R)-1-(1-(2-chlorophenyl)ethyl)pyrrolidin-3-yl)-5-(1-(piperidin-4-yl)-1H-pyrazol-4-yl)nicotinamide]
100 to 1000 | CC(c1cccc(Cl)c1)N1CC[C@@H](NC(=O)c2cc(-c3cnn(C4CCNCC4)c3)cnc2N)C1 (stereo partly drawn) [Example 149, 2-amino-N-((3R)-1-(1-(3-chlorophenyl)ethyl)pyrrolidin-3-yl)-5-(1-(piperidin-4-yl)-1H-pyrazol-4-yl)nicotinamide]
100 to 1000 | COc1ccccc1CN1CC[C@@H](NC(=O)c2cc(-c3cnn(C4CCNCC4)c3)cnc2N)C1 [Example 167, (R)-2-amino-N-(1-(2-methoxybenzyl)pyrrolidin-3-yl)-5-(1-(piperidin-4-yl)-1H-pyrazol-4-yl)nicotinamide]
100 to 1000 | COc1cccc(CN2CC[C@@H](NC(=O)c3cc(-c4cnn(C)c4)cnc3N)C2)c1OC [Example 217, (R)-2-amino-N-(1-(2,3-dimethoxybenzyl)pyrrolidin-3-yl)-5-(1-methyl-1H-pyrazol-4-yl)nicotinamide]
100 to 1000 | Cn1cc(-c2cnc(N)c(C(=O)N[C@@H]3CCN(Cc4cccc(OCc5ccccc5)c4)C3)c2)cn1 [Example 222, (R)-2-amino-N-(1-(3-(benzyloxy)benzyl)pyrrolidin-3-yl)-5-(1-methyl-1H-pyrazol-4-yl)nicotinamide]
100 to 1000 | Cn1cc(-c2cnc(N)c(C(=O)N[C@@H]3CCN(Cc4cc(Cl)cc(Cl)c4O)C3)c2)cn1 [Example 223, (R)-2-amino-N-(1-(3,5-dichloro-2-hydroxybenzyl)pyrrolidin-3-yl)-5-(1-methyl-1H-pyrazol-4-yl)nicotinamide]
100 to 1000 | Cn1cc(-c2cnc(N)c(C(=O)N[C@@H]3CCN(CCc4cccc(Br)c4)C3)c2)cn1 [Example 234, (R)-2-amino-N-(1-(3-bromophenethyl)pyrrolidin-3-yl)-5-(1-methyl-1H-pyrazol-4-yl)nicotinamide]
100 to 1000 | Nc1ncc(-c2ccc(C(=O)N3CCOCC3)cc2)cc1C(=O)N[C@@H]1CCN(Cc2ccc(Cl)cc2)C1 [Example 235, (R)-2-amino-N-(1-(4-chlorobenzyl)pyrrolidin-3-yl)-5-(4-(morpholine-4-carbonyl)phenyl)nicotinamide]
100 to 1000 | CN1CCN(Cc2ccc(-c3cnc(N)c(C(=O)N[C@@H]4CCN(Cc5ccc(Cl)cc5)C4)c3)cc2)CC1 [Example 236, (R)-2-amino-N-(1-(4-chlorobenzyl)pyrrolidin-3-yl)-5-(4-((4-methylpiperazin-1-yl)methyl)phenyl)nicotinamide]
100 to 1000 | CC(=O)N1CCC(n2cc(-c3cnc(N)c(C(=O)N[C@@H]4CCN(Cc5ccccc5)C4)c3)cn2)CC1 [Example 240, (R)-5-(1-(1-acetylpiperidin-4-yl)-1H-pyrazol-4-yl)-2-amino-N-(1-benzylpyrrolidin-3-yl)nicotinamide]
100 to 1000 | Cn1cc(-c2cnc(N)c(C(=O)N[C@@H]3CCN(Cc4ccccc4-c4cccc(CO)c4)C3)c2)cn1 [Example 247, (R)-2-amino-N-(1-((3′-(hydroxymethyl)-[1,1′-biphenyl]-2-yl)methyl)pyrrolidin-3-yl)-5-(1-methyl-1H-pyrazol-4-yl)nicotinamide]
100 to 1000 | Cn1cc(-c2cnc(N)c(C(=O)N[C@@H]3CCN(Cc4ccccc4-c4ccc(CO)cc4)C3)c2)cn1 [Example 248, (R)-2-amino-N-(1-((4′-(hydroxymethyl)-[1,1′-biphenyl]-2-yl)methyl)pyrrolidin-3-yl)-5-(1-methyl-1H-pyrazol-4-yl)nicotinamide]
100 to 1000 | Cn1cc(-c2cnc(N)c(C(=O)N[C@@H]3CCN(Cc4ccc(F)c(-c5ccccc5)c4)C3)c2)cn1 [Example 249, (R)-2-amino-N-(1-((6-fluoro-[1,1′-biphenyl]-3-yl)methyl)pyrrolidin-3-yl)-5-(1-methyl-1H-pyrazol-4-yl)nicotinamide]
10 to 100 | CN(C)Cc1ccc(-c2cccc(NC(=O)N3CC[C@@H](NC(=O)c4cc(-c5cnn(C)c5)cnc4N)C3)c2)cc1 [Example 266, (R)-2-amino-N-(1-((4′-((dimethylamino)methyl)-[1,1′-biphenyl]-3-yl)carbamoyl)pyrrolidin-3-yl)-5-(1-methyl-1H-pyrazol-4-yl)nicotinamide]
10 to 100 | Cn1cc(-c2cnc(N)c(C(=O)N[C@@H]3CCN(C(=O)Nc4ccc(-c5cccc(CN)c5)cc4)C3)c2)cn1 [Example 269, (R)-2-amino-N-(1-((3′-(aminomethyl)-[1,1′-biphenyl]-4-yl)carbamoyl)pyrrolidin-3-yl)-5-(1-methyl-1H-pyrazol-4-yl)nicotinamide]
100 to 1000 | CN1CCN(Cc2cccc(-c3ccc(NC(=O)N4CC[C@@H](NC(=O)c5cc(-c6cnn(C)c6)cnc5N)C4)cc3)c2)CC1 [Example 272, (R)-2-amino-5-(1-methyl-1H-pyrazol-4-yl)-N-(1-((3′-((4-methylpiperazin-1-yl)methyl)-[1,1′-biphenyl]-4-yl)carbamoyl)pyrrolidin-3-yl)nicotinamide]

Compound | IC50 [nM]
Cn1cc(-c2cnc(N)c(C(=O)N[C@@H]3CCN(c4ncc([N+](=O)[O-])s4)C3)c2)cn1 [Example 138, (R)-2-amino-5-(1-methyl-1H-pyrazol-4-yl)-N-(1-(5-nitrothiazol-2-yl)pyrrolidin-3-yl)nicotinamide] | > 1000
Cn1cc(-c2cnc(N)c(C(=O)N[C@@H]3CCN(CC(=O)c4ccccc4)C3)c2)cn1 [Example 215, (R)-2-amino-5-(1-methyl-1H-pyrazol-4-yl)-N-(1-(2-oxo-2-phenylethyl)pyrrolidin-3-yl)nicotinamide] | > 1000
Cn1cc(-c2cnc(N)c(C(=O)N[C@@H]3CCN(Cc4cccc(Oc5ccccc5)c4)C3)c2)cn1 [Example 221, (R)-2-amino-5-(1-methyl-1H-pyrazol-4-yl)-N-(1-(3-phenoxybenzyl)pyrrolidin-3-yl)nicotinamide] | > 1000
N#Cc1ccc(-c2cnc(N)c(C(=O)N[C@@H]3CCN(Cc4ccc(Cl)cc4)C3)c2)cc1 [Example 238, (R)-2-amino-N-(1-(4-chlorobenzyl)pyrrolidin-3-yl)-5-(4-cyanophenyl)nicotinamide] | > 1000
Cn1cc(-c2cnc(N)c(C(=O)N[C@@H]3CCN(Cc4ccc(F)c(C5=CCNCC5)c4)C3)c2)cn1 [Example 252, (R)-2-amino-N-(1-(4-fluoro-3-(1,2,3,6-tetrahydropyridin-4-yl)benzyl)pyrrolidin-3-yl)-5-(1-methyl-1H-pyrazol-4-yl)nicotinamide] | > 1000
CN1CCN(Cc2ccc(-c3cccc(CCN4CC[C@@H](NC(=O)c5cc(-c6cnn(C)c6)cnc5N)C4)c3)cc2)CC1 [Example 253, (R)-2-amino-5-(1-methyl-1H-pyrazol-4-yl)-N-(1-(2-(4′-((4-methylpiperazin-1-yl)methyl)-[1,1′-biphenyl]-3-yl)ethyl)pyrrolidin-3-yl)nicotinamide] | > 1000
CN1CCN(Cc2ccc(-c3ccc(NC(=O)N4CC[C@@H](NC(=O)c5cc(-c6cnn(C)c6)cnc5N)C4)cc3)cc2)CC1 [Example 273, (R)-2-amino-5-(1-methyl-1H-pyrazol-4-yl)-N-(1-((4′-((4-methylpiperazin-1-yl)methyl)-[1,1′-biphenyl]-4-yl)carbamoyl)pyrrolidin-3-yl)nicotinamide] | > 1000
